The values that follow are results of earlier work, collected in patent US12633379B2, “Visible neural network framework” (priority 2020, dated 2026).

In the data set the test system is 39 human cancer cell lines.
The mark [1] stands for this setting: across the majority of cell lines tested in DeepSynergy, partners in FIG. 5F: MK2206, PD325901.

`COc1cc([C@@H]2c3cc4c(cc3[C@@H](O[C@@H]3O[C@@H]5CO[C@@H](C)O[C@H]5[C@H](O)[C@H]3O)[C@H]3COC(=O)[C@H]23)OCO4)cc(OC)c1O` [etoposide]: under setting [1], the “Loewe synergy in combination with AKT inhibition” value was “synergized strongly” and the “Loewe synergy in combination with MEK inhibition” value is given as “synergized strongly”. Besides, the “Loewe synergy in combination with bortezomib” value (combined with the proteasome inhibitor bortezomib, DeepSynergy cell line panel, FIG. 12A, FIG. 5F) is given as “did not synergize”.
